Experimental findings from ChEMBL document CHEMBL1201862, “PubChem BioAssay data set” (2004) are described below.

SMILES strings stand for the structures. Active and inactive are the calls of the source.

One may read the IC50 as the concentration at which inhibition is half-maximal. As usually defined, the EC50 is the midpoint of the concentration-response curve. For orientation: AC50 means the concentration at which the activity in the assay is half-maximal.

Assay [1] deals with HEK293. Put plainly: NOD2 signaling inhibitors in MDP-stimulated cells, cell-based, uHTS, luminescence (AID 2001). Particulars: Homo sapiens. The format is functional.
Assay [2] has as its system HEK293. The assay can be described thus: cells. Conditions: Homo sapiens. The class given is functional, cell-based.
In assay [3] the test system is HEK293. Put plainly: cells. The format is functional, cell-based. Conditions: Homo sapiens. This is another data set of the same source.
The subject of assay [4] is HEK293. Put plainly: inhibition of NOD1-driven NF-kB reporter – cell-based, luminescence, uHTS, primary screen (AID 1578). The format is functional. Particulars: Homo sapiens.
Another assay concerns HeLa. Put plainly: ATP-based viability loss in HeLa cells – cell-based, CellTiter-Glo luminescence, cherry-pick samples, cytotoxicity control for MITF activator project, dose response (AID 540259). The class given is functional. Conditions: Homo sapiens. In general terms: In ATP-based viability assays light output follows the ATP content of the culture.
Assay [5] has as its system Streptococcus sp. 'group A'. Put plainly: Streptococcus pyogenes SK(-)GAS viability under kanamycin – luminescence, BacTiterGlo, confirmation, counter-screen for streptokinase expression inhibitor project, dose response (AID 1900). The format is functional, organism-based.
A short description of another assay: cells. The format is functional.
The next assay relates to Streptococcus. Put plainly: GAS UMAA2166 growth inhibition – luminescence, BacTiterGlo, counter-screen for streptokinase expression inhibitor project, dose response (AID 1915).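 Further: potency for reduction of bacterial viability or growth.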 The format is functional, organism-based. A general note: A counterscreen serves to expose hits that act by an unwanted route or on another target.
The subject of the next assay is H4. Put plainly: Luminescence Cell-Based Dose Response HTS to Identify Activators of 5'UTR Stem-Loop Driven Prion Protein mRNA Translation in H4 Neuroglioblastoma Cells. [Related pubchem assays: 1829 (Project Summary), 1814 (Primary HTS)]. The format is functional. Conditions: Homo sapiens.
Assay [6] can be described thus: Luminescence Cell-Based Dose Response HTS to Identify Activators of Luciferase Translation or Activity in H4 […] Cells. [Related pubchem assays: 1829 (Project Summary), 1814 (Primary HTS)]. The format is functional.
For assay [7], the system named is HEK293. Put plainly: EBV LMP1 TES2 canonical NF-kB signalling blockers – cell-based, HEK293, luciferase, cherry-pick, dose response (AID 588343). The format is functional. Particulars: Homo sapiens.
The nature of assay [8]: NIH3T3 cell viability loss – ATP luminescence, mouse fibroblasts, counter-screen, dose response (AID 2010).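 Further: cells exposed to compound for about 90 hours before reading.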 The format is functional, cell-based.
A short description of assay [9]: Trypanosoma cruzi growth suppression in host cells – NIH3T3 host cells, beta-gal luminescence, confirmation (AID 2044).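 Further: intracellular parasites grown in NIH/3T3 mouse fibroblasts as host cells; luminescent beta-galactosidase reporter signal from transgenic T. cruzi replicating inside host cells; inhibitors lower the luminescence signal.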 The class given is functional, cell-based.
Assay [10] addresses T1, Zinc finger protein mex-5 (Caenorhabditis elegans, UniProt Q9XUB2).
T1 sequence (Q9XUB2 whole entry): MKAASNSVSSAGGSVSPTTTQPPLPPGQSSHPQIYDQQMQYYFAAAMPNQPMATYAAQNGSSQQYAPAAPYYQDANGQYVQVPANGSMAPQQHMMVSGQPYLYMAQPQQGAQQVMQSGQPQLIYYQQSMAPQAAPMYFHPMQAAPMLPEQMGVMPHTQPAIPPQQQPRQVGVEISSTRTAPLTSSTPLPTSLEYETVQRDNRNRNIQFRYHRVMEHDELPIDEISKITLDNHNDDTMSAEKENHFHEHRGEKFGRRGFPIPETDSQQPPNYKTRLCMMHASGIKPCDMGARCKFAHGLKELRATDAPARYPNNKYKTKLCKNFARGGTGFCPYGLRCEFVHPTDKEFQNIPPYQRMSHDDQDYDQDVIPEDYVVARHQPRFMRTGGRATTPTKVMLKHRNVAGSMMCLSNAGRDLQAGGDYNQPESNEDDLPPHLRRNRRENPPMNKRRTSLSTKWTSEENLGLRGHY
Put plainly: potency of MEX-5 RNA-binding blockers – biochemical, C. elegans, fluorescence polarization, dose response (AID 1960). (In general: In fluorescence polarisation assays a small probe gives low polarisation when free and higher when bound to something large.)

For assay [11], the target named is T2, RNA-binding protein pos-1 (Caenorhabditis elegans, UniProt G5EF15).
T2 sequence (G5EF15 whole entry): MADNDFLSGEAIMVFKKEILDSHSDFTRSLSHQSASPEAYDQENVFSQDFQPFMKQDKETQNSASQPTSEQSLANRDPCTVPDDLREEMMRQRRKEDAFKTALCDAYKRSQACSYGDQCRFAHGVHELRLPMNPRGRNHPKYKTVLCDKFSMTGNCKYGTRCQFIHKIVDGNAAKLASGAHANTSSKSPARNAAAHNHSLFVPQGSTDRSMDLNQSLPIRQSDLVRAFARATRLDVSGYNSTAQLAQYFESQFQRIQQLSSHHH
The assay can be described thus: disruptors of C. elegans POS-1 RNA interaction – biochemical, fluorescence polarization, dose response (AID 1964).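 Further: purified POS-1 fused to maltose binding protein made in E. coli; potency of compounds blocking POS-1 binding to fluorescent RNA.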

The target of the next assay is T3, Cytochrome P450 1A2 (Homo sapiens, UniProt P05177).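 Further: PubChem cytochrome P450 panel assay, CYP1A2 panel member.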
T3 sequence (P05177 whole entry): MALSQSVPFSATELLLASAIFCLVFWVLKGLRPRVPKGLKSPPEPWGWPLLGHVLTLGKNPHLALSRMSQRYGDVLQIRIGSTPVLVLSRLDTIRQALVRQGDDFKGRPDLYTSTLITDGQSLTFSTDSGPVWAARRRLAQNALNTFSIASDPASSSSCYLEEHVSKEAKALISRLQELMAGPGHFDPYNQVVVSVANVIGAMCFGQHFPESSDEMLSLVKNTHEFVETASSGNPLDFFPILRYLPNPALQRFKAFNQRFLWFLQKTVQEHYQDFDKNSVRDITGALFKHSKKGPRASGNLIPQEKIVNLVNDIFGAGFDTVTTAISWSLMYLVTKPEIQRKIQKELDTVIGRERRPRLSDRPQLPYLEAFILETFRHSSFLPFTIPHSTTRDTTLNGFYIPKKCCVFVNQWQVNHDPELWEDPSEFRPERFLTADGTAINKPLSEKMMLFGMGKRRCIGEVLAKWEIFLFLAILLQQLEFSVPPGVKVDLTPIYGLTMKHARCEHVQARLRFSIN

The target in the next assay is Cytochrome P450 2C9 (Homo sapiens, UniProt P11712).
A further assay deals with T4, Coagulation factor XII (Homo sapiens, UniProt P00748).
T4 sequence (P00748 whole entry): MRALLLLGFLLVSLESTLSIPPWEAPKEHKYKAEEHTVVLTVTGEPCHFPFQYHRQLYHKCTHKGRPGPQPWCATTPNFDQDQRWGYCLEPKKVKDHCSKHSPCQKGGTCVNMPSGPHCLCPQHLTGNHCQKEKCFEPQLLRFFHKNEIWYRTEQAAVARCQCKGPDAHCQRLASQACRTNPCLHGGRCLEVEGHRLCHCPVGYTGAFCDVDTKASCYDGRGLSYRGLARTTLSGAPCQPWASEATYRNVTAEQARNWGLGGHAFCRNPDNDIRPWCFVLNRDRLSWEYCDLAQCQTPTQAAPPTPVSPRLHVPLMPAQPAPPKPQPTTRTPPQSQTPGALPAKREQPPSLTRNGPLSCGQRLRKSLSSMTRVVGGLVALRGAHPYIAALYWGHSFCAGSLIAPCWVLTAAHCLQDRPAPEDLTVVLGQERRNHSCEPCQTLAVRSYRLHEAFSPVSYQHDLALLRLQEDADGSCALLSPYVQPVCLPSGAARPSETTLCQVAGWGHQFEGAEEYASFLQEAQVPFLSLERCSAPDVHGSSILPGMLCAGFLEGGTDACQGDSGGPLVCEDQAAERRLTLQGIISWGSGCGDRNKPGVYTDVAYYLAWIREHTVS
The class given is functional.

For the next assay, the target named is Cytochrome P450 3A4 (Homo sapiens, UniProt P08684).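 Further: CYP3A4 tested as one member of a cytochrome P450 panel screen.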
Another assay deals with Cytochrome P450 2D6 (Homo sapiens, UniProt P10635).
Assay [12] in a line: reduction of Shn3 3'UTR-driven luciferase in osteoblasts – cell-based, Clone20 osteoblasts, firefly luciferase, cherry-picked, dose response (AID 624132).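 Further: firefly luciferase luminescence from reporter carrying the Shn3 3'UTR in osteoblasts.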 The format is functional.
A short description of assay [13]: loss of viability in HepG2 cells – cell-based, CellTiter-Glo, cherry-picked, cytotoxicity control for Shn3 inhibitor project, dose response (AID 624134). The format is functional.
A short description of assay [14]: non-specific 3'UTR reporter inhibition in Clone20-Shn3RL – cell-based, Renilla luciferase, cherry-picked, counter-screen for Shn3 inhibitor project, dose response (AID 624133). The class given is functional.

Chain of Cytochrome P450 2D6 (P10635 whole entry): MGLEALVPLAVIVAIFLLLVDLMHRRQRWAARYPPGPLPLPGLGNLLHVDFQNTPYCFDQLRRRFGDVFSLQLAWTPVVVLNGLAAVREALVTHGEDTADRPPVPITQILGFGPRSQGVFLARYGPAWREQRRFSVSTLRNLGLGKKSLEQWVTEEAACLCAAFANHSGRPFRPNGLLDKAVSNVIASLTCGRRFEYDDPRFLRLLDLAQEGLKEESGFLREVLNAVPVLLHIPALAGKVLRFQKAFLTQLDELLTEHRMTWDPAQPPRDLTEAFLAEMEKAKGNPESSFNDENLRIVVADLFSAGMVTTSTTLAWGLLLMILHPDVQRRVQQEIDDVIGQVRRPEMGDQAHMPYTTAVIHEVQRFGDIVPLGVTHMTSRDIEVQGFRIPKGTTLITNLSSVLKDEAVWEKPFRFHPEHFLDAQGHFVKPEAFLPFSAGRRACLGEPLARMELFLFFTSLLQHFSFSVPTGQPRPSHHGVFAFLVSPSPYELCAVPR
Chain of Cytochrome P450 2C9 (P11712 whole entry): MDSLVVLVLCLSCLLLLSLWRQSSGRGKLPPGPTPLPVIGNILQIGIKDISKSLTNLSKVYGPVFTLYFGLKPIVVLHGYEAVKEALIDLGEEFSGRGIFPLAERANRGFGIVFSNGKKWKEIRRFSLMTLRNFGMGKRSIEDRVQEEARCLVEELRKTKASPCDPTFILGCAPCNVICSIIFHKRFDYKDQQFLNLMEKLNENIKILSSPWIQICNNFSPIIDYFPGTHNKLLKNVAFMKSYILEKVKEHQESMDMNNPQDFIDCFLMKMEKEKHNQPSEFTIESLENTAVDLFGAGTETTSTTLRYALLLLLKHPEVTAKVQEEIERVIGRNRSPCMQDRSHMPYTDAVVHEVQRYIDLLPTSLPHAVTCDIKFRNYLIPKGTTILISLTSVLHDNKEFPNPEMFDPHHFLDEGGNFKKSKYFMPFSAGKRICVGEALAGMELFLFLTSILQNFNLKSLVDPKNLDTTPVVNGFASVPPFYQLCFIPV
Chain of Cytochrome P450 3A4 (P08684 whole entry): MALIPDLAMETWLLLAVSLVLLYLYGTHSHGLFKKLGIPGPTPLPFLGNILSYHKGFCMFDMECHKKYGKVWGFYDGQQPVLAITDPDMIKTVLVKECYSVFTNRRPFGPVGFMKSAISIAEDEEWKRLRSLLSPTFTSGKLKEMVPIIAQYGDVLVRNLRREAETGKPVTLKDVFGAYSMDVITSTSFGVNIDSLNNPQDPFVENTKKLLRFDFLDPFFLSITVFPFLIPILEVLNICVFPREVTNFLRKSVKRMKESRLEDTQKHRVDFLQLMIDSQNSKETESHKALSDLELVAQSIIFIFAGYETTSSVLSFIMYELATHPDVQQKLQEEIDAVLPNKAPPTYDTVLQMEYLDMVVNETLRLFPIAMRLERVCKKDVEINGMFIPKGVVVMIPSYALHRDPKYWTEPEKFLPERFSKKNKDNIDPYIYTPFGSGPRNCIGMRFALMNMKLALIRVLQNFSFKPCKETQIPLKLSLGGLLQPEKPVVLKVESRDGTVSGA

For `COC(=O)c1ccc2c(O)nc(CCl)nc2c1`, the IC50 in the assay on HEK293 [1], in the assay on HEK293 [2] and in the assay on HEK293 [3] was > 20 µM (inactive) in each case. Besides, in the assay on HEK293 [4], the EC50 is > 20 µM (inactive).
On to `COc1cccc(C(=O)Nc2nnc(-c3ccccc3)s2)c1`, for which, in the assay on HeLa, the half-maximal activity concentration (AC50) is 44.4 µM (active).
In the case of `Cc1cccc(OC(=O)c2sc3ncn(C)c(=O)c3c2C)c1`, the 50% effective concentration (EC50) in assay [5] was 2.85 µM (active); in the assay on Streptococcus, 7.36 µM (active); with H4, 19.8 µM (active); in [6], > 120 µM (not active). For the same compound, the IC50 in “cells” was 2.87 µM (active). In addition, the AC50 with HeLa is > 350 µM (inactive).
Turning to `O=C(NC1CCCC1)c1cc(-c2ccc(Cl)cc2Cl)on1`, the AC50 in the assay on HeLa was > 350 µM (inactive).
For the compound `C=CCn1c(SCc2csc(C)n2)nc2sc3c(c2c1=O)CCCC3`, in the assay on HEK293 [7], the AC50 was 35.8 µM (active).
As for `CCS(=O)(=O)c1ccc2oc(Nc3ccccc3C)nc2c1`, the AC50 with HeLa is 78.7 µM (active).
In the case of `Cc1ccc(S(=O)(=O)N2c3ccccc3-c3c(ssc3=S)C2(C)C)cc1`, the figures for the EC50 in assay [8] and in assay [9] were > 60 µM (not active) and 2.65 µM (active), respectively. In addition, in the assay with HEK293 [7], the AC50 is 43.5 µM (active).
`COc1ccc(/C=C/C(=O)c2c(C)cc(C)nc2O)c2ccccc12`: the half-maximal effective concentration (EC50) in [10] was > 300 µM (not active); in assay [11], > 300 µM (not active); with HEK293 [4] it was 4.53 µM (active). Besides, the IC50 in the assay with HEK293 [1] is 12.4 µM (inactive); in the assay on HEK293 [2] it was 10.1 µM (active); in the assay with HEK293 [3], > 20 µM (inactive).
For the compound `Nc1ccc2oc(=O)c3ccccc3c2c1`, the concentration at half-maximal activity (AC50) in the assay with HeLa was 178 µM (active).
Take `O=C(c1ccccc1)C1CN(c2ccccc2)CC1c1ccc(Cl)cc1` (centres undefined): the AC50 on Cytochrome P450 1A2 was 3.55 µM (inconclusive); on Cytochrome P450 2C9, 5.01 µM (inconclusive); at Cytochrome P450 3A4, 8.91 µM (inconclusive); at Cytochrome P450 2D6 it was 3.16 µM (inconclusive). The IC50 on Coagulation factor XII is > 50 µM (inactive).
In the case of `CC(=NNC(=S)Nc1ccccc1)c1ccccn1`, the AC50 in the assay with HEK293 [7] is 0.0995 µM (active).
Consider `CCCC(=O)NC(c1cccc([N+](=O)[O-])c1)c1ccc2cccnc2c1O` (centres undefined), for which the concentration at half-maximal activity (AC50) in assay [12] was 1.75 µM (active); in assay [13], 4.25 µM (active); in assay [14] it was 3.55 µM (active); with HEK293 [7], 4.48 µM (active).
